Here are results for one molecule from patent publication US20240174744A1, “METHODS OF TREATMENT USING PROTEIN BINDERS TO IRHOM2 EPITOPES” (SCIRHOM GMBH, priority 2021, published 2024).

SMILES strings stand for the structures.

The term inhibition denotes the drop in the measured response relative to a control, in per cent.

In the experiment the test system is PMA-induced release of IL-6R from U-937 cells. The experiment can be described thus: ELISA-based IL-6R release assay, PMA-stimulated U-937 cells. It is filed as cell-based. The note with it: Homo sapiens, U-937, 1 h, Batimastat 10 μM, PMA 62.5 ng/ml. As to the method: Complementary to Example 26 described above, ELISA-based IL-6R release assays were performed to verify the inhibitory effects of the antibodies of the present disclosure on PMA-induced release of endogenous IL-6R from human U-937 cells.
In brief, on day 1, Nunc black MaxiSorp® 96-well plates (Thermo Fisher Scientific, USA) were coated overnight with 100 μl per well of mouse anti-human IL-6R capture antibody (provided as part of the DuoSet ELISA kit) at 2 μg/ml TBS at 4° C. On day 2, the capture antibody solution was removed and MaxiSorp® plates were blocked with 300 μl per well of TBS, 1% BSA at room temperature for 1-2 hours. […] Using an infinite M1000 (Tecan Group, Switzerland) microplate reader, the fluorescence of each well was collected at an excitation wavelength of 435 nm and an emission wavelength of 555 nm. […]
For orientation: In an ELISA, binding on a coated surface is turned into a signal by an enzyme label.

Consider `CNC(=O)[C@H](Cc1ccccc1)NC(=O)[C@H](CC(C)C)[C@H](CSc1cccs1)C(=O)NO` [Batimastat], for which the inhibition at 10 µM worked out at 91.6% (murine (m) and chimeric (ch) antibodies 3 μg/ml); 86.6% (recombinant murine antibodies 1 μg/ml).
